Results: PMC6152407, “Molecular Mechanisms Underlying Inhibitory Binding of Alkylimidazolium Ionic Liquids to Laccase” (Molecules : A Journal of Synthetic Chemistry and Natural …, 2017)

How the values were obtained:
Tve laccase = conditions: ABTS, pH 3, cited from earlier work
[1] = system: Myceliophthora thermophila (Mth) laccase; format: biochemical
Method: (§1) Reaction velocities (vo) were determined by mixing 50 μL of the properly diluted enzyme, 50 μL of substrate solution, and 2.4 mL of the media containing phosphate–citrate buffer (30 mM) and ILs in a 1 cm × 1 cm × 4 cm quartz colorimetric cell. […] All the reported data were averaged from at least three parallel measurements.

[2] = biological target: Myceliophthora thermophila (Mth) laccase; test: Inhibition kinetics of laccase/ABTS oxidation (Lineweaver–Burk); format: biochemical; conditions: laccase/ABTS oxidation at pH 3; read-out: competitive inhibition constant Kic
Method: as §1
A series of vo were measured under varied concentrations of substrate ([S]) and IL ([I]). The Lineweaver–Burk diagrams were then constructed by plotting 1/vo against 1/[S] to estimate Km and Vmax according to Equation (1). The features of inhibition by different ILs were also deduced from the diagrams. Ki was correspondingly calculated from Equations (2), (3) or (4).
(2) (Competitive) 1/v0=KM/Vmax[S](1+[I]/Kic)+ 1/Vmax

[3] = parameters: method as in PMID 26556325; conditions: 80% aqueous solution; cited from earlier work
[4] = Stability of ABTS cation radicals in ILs/buffer media; conditions: 30 mM buffer without IL
Method: ABTS cation radicals (ABTS^+) were obtained from the oxidation of ABTS (10 mmol/L) with the laccase (50 U/L) in […] phosphate–citrate buffer (pH 3) at 40 °C for 2 h. Then, the reaction mixtures were centrifuged in an ultrafiltration tube (molecular weight cutoff 10 kDa; Millipore, Bedford, MA, USA) at 9000× g for 10 min). Enzymes and polymerized substances were removed. The oxidized products were incubated with buffer (30 mM, pH 2~7) and ionic liquids (50 mM) at 25 °C for 6 min. The concentration of each product was monitored by the spectrophotometer.

Compound: [Cl-].[Na+] [NaCl]
- uncompetitive constant Kiu (Tve laccase): 18.1 mM
- Ki (Tve laccase; read-out: competitive constant Kic): 350 µM

Compound: CCCCn1cc[n+](C)c1.[Cl-] [[Bmim]Cl]
- retained laccase activity ([1]; pH 3): 65~75%
- initial activity retained by re-dissolved complex (Mth laccase): 65%

Compound: CCCCCCCCCCn1cc[n+](C)c1 [[Dmim]Cl]
- laccase inactivation ([1]; 50 mM IL, ABTS, pH 3 (Figure 2d)): almost completely inactivated
- Ki [2]: 180 µM

Compound: CCCCCCCC[n+]1ccn(C)c1 [[Omim]Cl]
- Ki [2]: 2150 µM

Compound: CC(C)=O [acetone]
- time for 50% reduction of ABTS^+ [3]: ≤ 7 min

Compound: ABTS^+
- half-life of ABTS^+ ([4]; pH 2): 6.17 h
- half-life of ABTS^+ ([4]; pH 7): 0.728 h

Compound: KCl
- activity loss compared with other salts ([1]; pH 3): more activity loss than alkylimidazolium chlorides
